{"source": "patent US20230416196A1", "about": "“DIMER OF BIGUANIDINES AND THEIR THERAPEUTIC USES” (INSTITUT CURIE, priority 2020, published 2023)", "tested_on": "mice challenged with LPS", "assay": "Murine model of LPS-induced severe inflammation", "format": "in vivo, BALB/c mice", "conditions": "LPS 20 mg/kg IP; LCC-12 0.3 mg/kg IP; dexamethasone 10 mg/kg PO as comparator; FIG. 4D", "experimental": "Murine model of LPS-induced severe inflammation. Animal work was conducted at Fidelta Ltd according to 2010/63/EU and National legislation regulating the use of laboratory animals in scientific research and for other purposes (Official Gazette 55/13). An Institutional Committee on Animal Research Ethics (CARE-Zg) oversaw that animal-related procedures were not compromising the animal welfare. LPS (Sigma-Aldrich, L2630, 20 mg/kg) was injected intraperitoneally to male BALB/c mice (8 weeks-old). LCC-12 (0.3 mg/kg, IP, n=10) or vehicle (0.9% NaCl, 10 mL/kg, IP, n=10) were injected 2 h prior LPS challenge, then 24 h, 48 h, 72 h and 96 h post challenge. Dexamethasone (10 mg/kg, PO, n=10) was given 1 h prior LPS challenge. Incidence of mortality was monitored every 4 h up to 48 h, then twice daily.", "data": [{"smiles": "N=C(N)NC(=N)NCCCCCCCCCCCCNC(=N)NC(=N)N", "note": "[LCC-12, lipophilic copper clamp C12]", "values": [{"measurement": "survival of mice challenged with LPS", "result": "increased the survival of mice challenged with LPS to a similar extent than dexamethasone"}]}]}
